Read-outs that look alike come from different tables or passages of the source.
Key:
[1] = molecular target: T1, Porcine pancreatic phospholipase A2 (Sus scrofa, UniProt P00592); assay: Phospholipase A2 inhibitory activity, method A (egg yolk lecithin substrate); type: biochemical; conditions: 1,000 ppm, 37°C for 30 minutes, read-out: % inhibition of PLA2 (1,000 ppm)
T1 construct: purchased Boehringer Mannheim·Yamanouchi K.K. 161454·122416
Description: To 10 mg of egg yolk lecithin (manufactured by Wako Pure Chemical Industries Ltd.), 1 ml of glycerine, 2 ml of a 50 mM Tris-HCl buffer solution (pH7.5) [Tris(hydroxymethyl)aminomethane (manufactured by Nacalai Tesque K.K.) was adjusted to pH7.5 with hydrochloric acid], 0.5 ml of a 150 mM calcium chloride solution (calcium chloride was dissolved in a 50 mM Tris-HCl buffer solution) and 0.5 ml of a 0.05% Triton-X100 (manufactured by Nacalai Tesque K.K.) solution (Triton-X100 was dissolved in a 50 mM Tris-HCl buffer solution), were added and dispersed by an agate mortar or dispersed by an ultrasonic processor (Model W-225, manufactured by Heat System-Ultrasonics, Inc.) for 5 minutes (30W) to obtain a substrate.
Porcine pancreatic phospholipase A2 [(161454·122416) manufactured by Boehringer Mannheim·Yamanouchi K.K.] was used.
To a 96 well microtitration plate (flat bottom, manufactured by Sumitomo Bakelite Medical Co., Ltd.), 40 µl of the substrate, 5 µl of a solution prepared by dissolving 10 mg of a test compound in 500 µl of dimethylsulfoxide, followed by an addition of 500 µl of a 50 mM Tris-HCl buffer solution, and 5 µl of an enzyme solution of 20 ng/ml (prepared by diluting the enzyme in a 50 mM Tris-HCl buffer solution), were added and reacted at 37°C for 30 minutes. After termination of the reaction, the released free fatty acid was quantitatively analyzed in accordance with the ACS-ACOD (acyl CoA synthetase-acyl CoA oxidase) method [a kit of NEFA C test wako (manufactured by Wako Pure Chemical Industries, Ltd.) was used]. The quantitative analysis was made by means of Microplate ELISA Reader (Model 2550EIA Reader, manufactured by Bio-Rad Laboratories) at a wavelength of 540 nm. Separately, such experiments as mentioned above, were carried out at various concentrations (2 µg/ml, 1 µg/ml and 0.5 µg/ml) of phospholipase A2 without a test compound. Then, the concentration of the free fatty acid versus the concentration of phospholipase A2 was plotted.
From this standard curve, the apparent concentration of phospholipase A2 in the case with a test compound, was read. Then, the percent inhibition of the enzyme was calculated by the following formula. Percent inhibition (%) = (l -(A)/(B)) x 100 [formula] • A: Apparent enzyme concentration when a test compound is added. • B: True enzyme concentration when a test compound is added.

[2] = tested on: increased vascular permeability induced by acetic acid; assay: Inhibitory activity on increased vascular permeability induced by acetic acid (Mouse Whittle method, method C); type: in vivo, ddy male mice; conditions: amount of leaked dye
Description: Using ddy male mice, each test group consisted of 4 or 5 mice. A test compound was mixed with Tween 80 [polyoxyethylenesorbitan monooleate (manufactured by Nacalai Tesque K.K.)], and distilled water was added thereto to obtain a 2% Tween 80 suspension, or it was dissolved in the form of a salt in water to obtain an aqueous solution. A test compound was orally administered, and upon expiration of one hour from the administration, 0.7% acetic acid was intraperitonially injected to each mouse in an amount of 0.1 ml/10 g, and at the same time, 2% brilliant blue was intravenously injected into the tail vein in an amount of 0.1 ml/20 g. Thirty minutes after the injection of brilliant blue, the cervical vertebrae were dislocated under anesthesia by chloroform, and the abdorminal cavity was washed with 5 ml of a physiological saline. The washing solution was subjected to centrifugal separation at 3,000 rpm for 10 minutes, and the amount of the dye in the supernatant was measured at 600 nm absorbance by Microplate ELISA Reader (Model 2550EIA Reader, manufactured by Bio-Rad Laboratories). The inhibition rate of the amount of leaked dye in the group in which a test compound was administered relative to the control group was obtained by the following formula. Inhibition rate (%) = (l -(C)/(D)) x 100 [formula] • C: Amount of leaked dye in the group to which a test compound was administered. • D: Amount of leaked dye in the control group.

[3] = tested on: carrageenin edema; assay: Inhibitory activity on carrageenin edema; type: in vivo, Wistar male rats; conditions: rat, paw swelling volume three hours after carrageenin; for inhibition in vivo at 100 mg/kg: dose 100 mg/kg orally; for Inhibition rate (%): dose 50 mg/kg orally
Outline: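 Male Wistar rats (about 100 g, 5 per group) dosed orally at 200, 100, 50 or 25 mg/kg as 2% Tween 80 suspension or aqueous salt solution, 1 h before subplantar injection of 0.1 ml 1% λ-carrageenin. Paw swelling measured at 3 h; % inhibition versus control group mean swelling.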

[4] = Acute toxicity, intravenous injection (LD50); type: in vivo; conditions: mouse, in vivo, ddy male mice, sodium salt, mortality over one week
Description: Administration route: Intravenous injection
Using ddy male mice (body weight: 25 - 30 g), each test group consisted of 5 mice. A test compound was dissolved in the form of a sodium salt in a physiological saline or in a 5% glucose aqueous solution, and intravenously injected in an amount of 0.1 ml/10 g body weight. After the injection, the mortality rate was obtained over one week, and the median lethal dose LD50 (mg/kg) was determined.

[5] = tested on: experimental acute pancreatitis model; assay: Effects against acute pancreatitis (Test Example 8, closed duodenal loop method, lesion scores); type: in vivo, Crj-CD male rats; conditions: sodium salt, 6 hours after ventrotomy; for inhibition in vivo at 10 mg/kg: Rattus norvegicus, 10 mg/kg single intravenous injection
Outline: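 Closed duodenal loop pancreatitis in male Crj-CD rats (n=3) under halothane/nitrous oxide; sodium-salt compounds given i.v. into tail vein by continuous infusion or bolus, controls untreated. At 6 h, four pancreatic lesions scored 0-3; inhibition % of total and hemorrhagic scores calculated versus control.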

[6] = molecular target: T1, Porcine pancreatic phospholipase A2; assay: Phospholipase A2 inhibitory activity, method B (L-α-dipalmitoylphosphatidylcholine substrate); type: biochemical; conditions: 1,000 ppm, 37°C for 30 minutes, read-out: % inhibition of PLA2 (1,000 ppm)
Outline: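 Substrate: L-α-dipalmitoylphosphatidylcholine/sodium cholate mixed micelles in 250 mM NaCl, 100 mM Tris-HCl pH 8.0. Enzyme (10 µg/ml stock) incubated with compound in buffer containing CaCl2 and BSA, 30 min at 37 °C. Released free fatty acid measured by ACS-ACOD at 540 nm; % inhibition derived from apparent enzyme concentration read off a standard curve.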

[7] = tested on: increased vascular permeability induced by acetic acid; assay: Inhibitory activity on increased vascular permeability induced by acetic acid (Rat Whittle method, method D); type: in vivo, SD (Crj: CD) male rats; conditions: amount of leaked dye
Description: Using SD (Crj: CD) male rats, each test group consisted of from 3 to 5 rats. A test compound was mixed with Tween 80 [polyoxyethylenesorbitan monooleate (manufactured by Nacalai Tesque K.K.)], and distilled water was added thereto to obtain a 2% Tween 80 suspension, or it was dissolved in the form of a salt in water to obtain an aqueous solution. A test compound was orally administered, and one hour later, 0.7% acetic acid was intraperitonially injected to each rat in an amount of 0.05 ml/10 g, and at the same time, 2% brilliant blue was intravenously injected into the tail vein in an amount of 0.05 ml/20 g. Thirty minutes after the injection of brilliant blue, the cervical vertebrae were dislocated under anesthesia by chloroform, and the abdorminal cavity was washed with 10 ml of a physiological saline. The washing solution was subjected to centrifugal separation at 3,000 rpm for 10 minutes, and the amount of the dye in the supernatant was measured at 600 nm absorbance by Microplate ELISA Reader (Model 2550EIA Reader, manufactured by Bio-Rad Laboratories). The inhibition rate of the amount of leaked dye in the group to which a test compound was administered relative to the control group was obtained from the following formula, and the results are shown in Table 9. Inhibition rate (%) = (l -(C)/(D)) x 100 [formula] • C: Amount of leaked dye in the group to which a test compound was administered. • D: Amount of leaked dye in the control group.

[8] = po, 3 h, read-out: Inhibition rate (%)
[9] = read-out: Inhibition rate of hemorrhagic lesions (%)
[10] = read-out: Inhibition rate of pancreatitis lesions (%)
[11] = 20 mg/kg continuous intravenous injection

T1 sequence (P00592 23-146): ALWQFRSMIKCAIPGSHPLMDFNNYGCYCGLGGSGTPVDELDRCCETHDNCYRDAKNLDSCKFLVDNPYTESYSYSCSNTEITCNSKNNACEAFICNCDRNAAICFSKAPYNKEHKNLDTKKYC

Structure (SMILES)	inhibition at 1000 ppm [1]	inhibition in vivo at 100 mg/kg [3, 8]	LD50 at 168 h ([4]; iv)	inhibition at 1000 ppm [6]	Inhibition rate (%) [3]	also measured
CCCCC(=O)Nc1cc(C(F)(F)F)cnc1NS(C)(=O)=O [Compound No. 2]	55%	17%	50 to 100 mg/kg	–	–	Inhibition rate (%) ([2]; dose 20 mg/kg orally): 51%; Inhibition rate of hemorrhagic lesions (%) ([5]; 26 mg/kg continuous intravenous injection): 46%
CCCCCC(=O)Nc1cc(C(F)(F)F)cnc1NS(C)(=O)=O [Compound No. 3]	67%	20%	> 100 mg/kg	–	–	Inhibition rate (%) ([2]; dose 50 mg/kg orally): 58%; inhibition in vivo at 10 mg/kg [5, 9]: 49%; inhibition in vivo at 10 mg/kg [5, 10]: 51%
CS(=O)(=O)Nc1ncc(C(F)(F)F)cc1NC(=O)C(F)(F)Cl [compound 11]	52%	24%	> 150 mg/kg	–	–	Inhibition rate (%) ([2]; dose 100 mg/kg orally): 49%; Inhibition rate of hemorrhagic lesions (%) ([5]; 23 mg/kg continuous intravenous injection): 52%
CCCOC(=O)Nc1cc(C(F)(F)F)cnc1NS(C)(=O)=O [compound 16]	43%	24%	–	–	–	Inhibition rate (%) ([2]; dose 20 mg/kg orally): 55%; LD50 at 168 h [4]: > 100 mg/kg; Inhibition rate of hemorrhagic lesions (%) [5, 11]: 52%
CCOC(=O)NC(=S)Nc1cc(C(F)(F)F)cnc1NS(C)(=O)=O [compound 18]	64%	–	–	49%	–	Inhibition rate (%) ([2]; dose 25 mg/kg orally): 49%; LD50 at 168 h [4]: > 150 mg/kg
CCCS(=O)(=O)Nc1ncc(C(F)(F)F)cc1NC(=O)C(F)(F)C(F)(F)F [compound 22]	74%	29%	> 100 mg/kg	–	–	Inhibition rate (%) ([2]; dose 10 mg/kg orally): 39%
C/C=C/C(=O)Nc1cc(C(F)(F)F)cnc1NS(C)(=O)=O [compound 55, N-(2-methylsulfonylamino-5-trifluoromethyl-3-pyridyl)crotonamide]	49%	–	237 mg/kg	–	–	Inhibition rate (%) ([2]; dose 25 mg/kg orally): 59%; Inhibition rate of hemorrhagic lesions (%) ([5]; 40 mg/kg continuous intravenous injection): 65%
CS(=O)(=O)Nc1ncc(C(F)(F)F)cc1NC(=O)c1ccccc1F [compound 57]	57%	35%	83 mg/kg	–	–	Inhibition rate (%) ([2]; dose 20 mg/kg orally): 43%; Inhibition rate of hemorrhagic lesions (%) [5, 11]: 60%
CS(=O)(=O)Nc1ncc(C(F)(F)F)cc1NC(=O)C=Cc1cccs1 [compound 72]	–	–	–	73%	–	Inhibition rate (%) ([7]; dose 25 mg/kg orally): 66%; inhibition in vivo at 25 mg/kg ([3]; po, 3 h, dose 25 mg/kg orally, read-out: Inhibition rate (%)): 21%; inhibition in vivo at 10 mg/kg [5, 9]: 62%; inhibition in vivo at 10 mg/kg [5, 10]: 32%
CS(=O)(=O)Nc1ncc(C(F)(F)F)cc1NC(=O)c1cccc(C(F)(F)F)c1 [compound 80]	–	–	> 80 mg/kg	73%	29%	Inhibition rate (%) ([7]; dose 25 mg/kg orally): 33%; inhibition in vivo at 10 mg/kg [5, 9]: 11%; inhibition in vivo at 10 mg/kg [5, 10]: 8%
CS(=O)(=O)Nc1ncc(C(F)(F)F)cc1NC(=O)c1ccncc1 [compound 82]	–	–	–	38%	19%	Inhibition rate (%) ([7]; dose 25 mg/kg orally): 38%
CCS(=O)(=O)Nc1ncc(C(F)(F)F)cc1NC(=O)c1cccc(F)c1 [compound 98]	–	–	–	65%	45%	Inhibition rate (%) ([7]; dose 50 mg/kg orally): 32%
CCS(=O)(=O)Nc1ncc(C(F)(F)F)cc1NC(=O)c1ccco1 [compound 101]	–	–	–	–	24%	Inhibition rate (%) ([2]; dose 20 mg/kg orally): 46%; Inhibition rate (%) ([7]; dose 50 mg/kg orally): 41%
CN(C)S(=O)(=O)Nc1ncc(C(F)(F)F)cc1NC(=O)c1cccc(F)c1 [compound 113]	–	–	–	35%	26%	Inhibition rate (%) ([7]; dose 50 mg/kg orally): 67%; inhibition in vivo at 10 mg/kg [5, 9]: 41%; inhibition in vivo at 10 mg/kg [5, 10]: 36%
CS(=O)(=O)Nc1ncc(C(F)(F)F)cc1NC(=O)OC1CCCCC1 [compound 121]	–	–	–	90%	–	Inhibition rate (%) ([7]; dose 12.5 mg/kg orally): 31%
